Measurements as given in patent US6265588A, “Isoxazole and crotonamide derivatives and their use as pharmaceuticals and diagnostics” (Aventis Pharma Deutschland GmbH, priority 1997, dated 2001).
Where a name gives a salt, the structure may show the parent alone.

Legend:
RAW 264.7 cells = experiment: Comparative affinity chromatography of LPS-stimulated, leflunomide-treated RAW 264.7 cytosol extracts; assay type: cell-based; details: RAW 264.7, 10 ng LPS/ml plus 60 μM A 77 1726B, 24 hours; FRACTOGEL column derivatized according to Example 10
Source text: The stimulation of the macrophage cell line RAW 264.7 with lipopolysaccharide was used as an in vitro model for inflammatory processes. Lipopolysaccharide ("LPS") is an essential structural constituent of the outer membrane of Gram-negative bacteria and is recognized as such by immune cells of almost all organisms. In particular, macrophages are activated by LPS stimulation to synthesize a number of cytokines such as TNF-α, IL-1 and IL-6. Potential changes in the protein pattern which accompany this stimulation should be prevented by the simultaneous administration of the immunoregulatory preparation leflunomide.
RAW 264.7 cells were incubated with 10 ng of LPS/ml of culture medium for 24 hours. In the case of LPS-stimulated, leflunomide-treated cells, incubation was simultaneously carried out with 60 μM A 77 1726B for 24 hours. The cells were processed and the cytosolic extracts investigated by affinity chromatography with the aid of the FRACTOGEL® column derivatized according to Example 10. The preparation fractions of these three batches were then applied to an analytical gradient gel and compared with one another.

A20.2.J = experiment: Proliferation test, cell line A20.2.J; assay type: cell-based; details: 72 h, tritium-thymidine incorporation, read-out: concentrations at which a 50% inhibition occurs, A20.2.J
Protocol: (§1) Clicks/RPMI 1640 medium (50:50) with L-glutamine and without NaHCO3 in powder form for 10 l (Seromed, Biochrom, Berlin, FRG), is dissolved in 9 l of double-distilled water and sterile-filtered into bottles each containing 900 ml.
(§2) For keeping tumor cells and hybridoma cells, use medium containing 5% FCS is prepared.
(§3) For keeping cell lines, 900 ml of use medium containing 10% FCS, 10 ml of NEA (non-essential amino acids) solution (Gibco), 10 ml of sodium pyruvate solution (100 mM, Gibco) and 5 ml of 10^-2 M mercaptoethanol are mixed.
(§4) The tumor cells or cell lines used in the test are taken from the stock solution in the logarithmic growth phase, washed twice with wash medium and suspended in the appropriate medium.
(§5) The proliferation test is carried out in round-bottom microtiter plates. Compounds of the formula I and interleukins are dissolved in 50 μl each/hollow of the appropriate medium and the cell count (5×10^5) is adjusted with 100 μl/hollow so that a final volume of 200 μl/hollow results. In all tests, the values are determined four times. Cells without preparations and without growth factor are defined as a negative control and cells without preparation with growth factor afford the values for the positive control. The value of the negative control is subtracted from all values determined and the difference of positive control minus negative control is set at 100%.
(§6) The microtiter plates are incubated at 37° C./5% CO2 for 72 h and the proliferation rate is determined correspondingly as in mitogen-induced lymphocyte proliferation. The cell lines were obtained from the strain collection, American Type Culture Collection ("ATCC").

EL 4 = experiment: Proliferation test, cell line EL 4; assay type: cell-based; details: Mus musculus, EL4; cell line EL 4, 72 h, tritium-thymidine incorporation; read-out: concentrations at which a 50% inhibition occurs, EL 4
Protocol: as §1, §2, §3, §4, §5, §6

K562 = experiment: Proliferation test, cell line K562; assay type: cell-based; details: Homo sapiens; cell line K562, 72 h, tritium-thymidine incorporation; read-out: concentrations at which a 50% inhibition occurs, K562
Protocol: as §1, §2, §3, §4
as §5, with “Cells without preparations and without growth factor are defined as a negative control and cells without preparation with growth factor afford the values for the positive control.” left out
The microtiter plates are incubated at 37° C./5% CO2 for 72 h and the proliferation rate is determined correspondingly as in mitogen-induced lymphocyte proliferation. […]

dehydrogenases = experiment: BIAcore comparison of relative binding strengths of the dehydrogenases; details: protein concentration of 1 μM; compound immobilised on CM5 chip
Protocol: (§7) The analysis was carried out essentially as described in Current Biology, Vol. 3, No. 12, pages 913-915 (1993).
(§8) System: BIAcore® 2000 with corresponding software, Pharmacia Biosensor AB, Uppsala, Sweden
(§9) Chip: CM5 sensor chip, Pharmacia Biosensor AB
(§10) Coating: according to Example 8
(§11) Running buffer: HBS buffer, BIA certified, Pharmacia Biosensor AB
(§12) Injection: 5 min association phase per 50 μl of the sample to be analyzed.
(§13) Rinsing time: 180 sec 3 min dissociation phase
(§14) Regeneration: 2×15 sec using 0.05% sodium dodecylsulfate
The relative binding strengths of the dehydrogenases investigated were compared with one another at a defined protein concentration.

Dihydroorotate DH = Dihydroorotate DH (Homo sapiens, UniProt Q02127); experiment: BIAcore binding of dehydrogenases to chip coated with compound of Example 2; details: compound immobilised on CM5 chip
Dihydroorotate DH, sequence (Q02127 whole entry): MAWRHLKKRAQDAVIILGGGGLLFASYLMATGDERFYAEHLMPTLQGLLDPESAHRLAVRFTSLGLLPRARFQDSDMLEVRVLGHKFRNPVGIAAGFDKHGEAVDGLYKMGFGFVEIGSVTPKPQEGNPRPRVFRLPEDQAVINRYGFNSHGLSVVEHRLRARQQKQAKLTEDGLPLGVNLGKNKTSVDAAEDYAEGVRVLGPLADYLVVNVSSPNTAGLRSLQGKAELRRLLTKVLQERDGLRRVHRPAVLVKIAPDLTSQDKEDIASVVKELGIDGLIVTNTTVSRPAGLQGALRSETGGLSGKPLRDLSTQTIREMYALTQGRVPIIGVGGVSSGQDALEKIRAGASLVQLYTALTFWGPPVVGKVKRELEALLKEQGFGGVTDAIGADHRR
Protocol: (§15) The starting material is a CM5 chip from Pharmacia Biosensor having a carboxymethyldextran surface (BIApplication Handbook, Ed. 1994, Merck AB, Uppsala, Sweden). The coupling steps are all carried out at a flow rate of 5 μl/min. All steps are carried out at 25° C. using Hepes buffered saline ("HBS") pH 7.4 as the running buffer.
(§16) 1st step: 35 μl of a 1:1 mixture of 0.05 M NHS (N-hydroxysuccinimide) and 0.2 M EDC (N-ethyl-N'-(dimethylaminopropyl)carbodiimide) in order to activate the chip surface.
(§17) 2nd step: 35 μl of a 40 mM cystamine dihydrochloride solution in 0.1 M sodium borate buffer pH 8.5.
(§18) 3rd step: 35 μl of ethanolamine hydrochloride pH 8.5 to saturate unoccupied matrix structures.
(§19) 4th step: 35 μl of 0.1 M dithiothreitol in 0.1 M sodium borate buffer pH 8.5.
(§20) 5th step: 35 μl of a solution containing compound according to Example 2 (10 mg/ml) in 0.1 M sodium borate buffer pH 7.5.
as §7, §8, §9, §10, §11, §12, §13, §14
(§21) The term "Resonance Units" is a quantitative unit which is proportional to the amount of protein bound.
(§22) DH represents the enzyme designation dehydrogenase

Pyruvate kinase DH = experiment: as above; details: compound immobilised on CM5 chip
Protocol: as §15, §16, §17, §18, §19, §20, §7, §8, §9, §10, §11, §12, §13, §14, §21, §22

[1] = molecular target: Glyceraldehyde phosphate DH (Homo sapiens, UniProt P04406); experiment: as above; details: compound immobilised on CM5 chip
Glyceraldehyde phosphate DH, sequence (P04406 whole entry): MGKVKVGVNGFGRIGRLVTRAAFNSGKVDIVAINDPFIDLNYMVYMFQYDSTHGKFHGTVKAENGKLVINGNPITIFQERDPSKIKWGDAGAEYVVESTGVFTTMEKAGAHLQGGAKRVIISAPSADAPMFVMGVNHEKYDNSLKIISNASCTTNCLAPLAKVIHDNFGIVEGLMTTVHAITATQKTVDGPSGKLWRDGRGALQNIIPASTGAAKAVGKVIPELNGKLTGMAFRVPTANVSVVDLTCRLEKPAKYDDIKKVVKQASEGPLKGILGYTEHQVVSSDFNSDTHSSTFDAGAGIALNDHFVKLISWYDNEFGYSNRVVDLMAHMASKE
Protocol: as §15, §16, §17, §18, §19, §20, §7, §8, §9, §10, §11, §12, §13, §14, §21, §22

Donkey serum albumin = Donkey serum albumin (Equus asinus, UniProt Q5XLE4); experiment: BIAcore binding of serum albumin to chip coated with compound of Example 2; details: compound immobilised on CM5 chip according to Example 8
Donkey serum albumin, sequence (Q5XLE4 25-607): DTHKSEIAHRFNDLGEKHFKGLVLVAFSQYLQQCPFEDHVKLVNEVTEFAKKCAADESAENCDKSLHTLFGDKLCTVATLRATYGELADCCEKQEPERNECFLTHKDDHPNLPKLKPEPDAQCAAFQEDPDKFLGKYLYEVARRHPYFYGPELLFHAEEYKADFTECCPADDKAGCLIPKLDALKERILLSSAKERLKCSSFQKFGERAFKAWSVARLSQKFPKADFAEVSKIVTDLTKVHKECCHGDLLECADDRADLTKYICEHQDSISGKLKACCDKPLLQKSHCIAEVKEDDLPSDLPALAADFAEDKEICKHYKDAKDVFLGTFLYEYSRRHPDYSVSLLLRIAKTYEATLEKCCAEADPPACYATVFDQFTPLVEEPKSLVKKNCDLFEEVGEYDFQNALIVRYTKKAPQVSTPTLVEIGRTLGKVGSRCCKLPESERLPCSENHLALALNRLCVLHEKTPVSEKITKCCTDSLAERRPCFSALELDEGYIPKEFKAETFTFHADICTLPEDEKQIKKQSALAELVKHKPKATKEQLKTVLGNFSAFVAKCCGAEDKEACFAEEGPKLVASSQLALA
Protocol: as §15, §16, §17, §18, §19, §20, §7, §8, §9, §10, §11, §12, §13, §14, §21

Sheep serum albumin = Sheep serum albumin (Ovis aries, UniProt P14639); experiment: as above; details: compound immobilised on CM5 chip according to Example 8
Sheep serum albumin, sequence (P14639 25-607): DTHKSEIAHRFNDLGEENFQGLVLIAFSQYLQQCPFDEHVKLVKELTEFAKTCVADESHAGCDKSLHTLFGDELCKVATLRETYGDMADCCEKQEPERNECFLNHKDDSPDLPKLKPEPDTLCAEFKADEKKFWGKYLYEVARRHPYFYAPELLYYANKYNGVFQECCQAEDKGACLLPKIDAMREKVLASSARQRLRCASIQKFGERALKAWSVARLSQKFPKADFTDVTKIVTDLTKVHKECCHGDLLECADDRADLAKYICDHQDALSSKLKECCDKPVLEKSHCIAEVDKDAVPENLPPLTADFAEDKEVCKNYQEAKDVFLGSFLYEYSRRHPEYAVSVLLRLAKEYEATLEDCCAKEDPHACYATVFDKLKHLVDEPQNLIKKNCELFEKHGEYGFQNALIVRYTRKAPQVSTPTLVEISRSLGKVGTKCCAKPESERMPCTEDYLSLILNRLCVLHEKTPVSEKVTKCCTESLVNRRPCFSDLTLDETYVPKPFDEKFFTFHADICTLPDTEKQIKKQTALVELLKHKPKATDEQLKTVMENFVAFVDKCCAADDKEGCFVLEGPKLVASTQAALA
Protocol: as §15, §16, §17, §18, §19, §20, §7, §8, §9, §10, §11, §12, §13, §14, §21

Bovine serum albumin = Bovine serum albumin (Bos taurus, UniProt P02769); experiment: as above; details: compound immobilised on CM5 chip according to Example 8
Bovine serum albumin, sequence (P02769 25-607): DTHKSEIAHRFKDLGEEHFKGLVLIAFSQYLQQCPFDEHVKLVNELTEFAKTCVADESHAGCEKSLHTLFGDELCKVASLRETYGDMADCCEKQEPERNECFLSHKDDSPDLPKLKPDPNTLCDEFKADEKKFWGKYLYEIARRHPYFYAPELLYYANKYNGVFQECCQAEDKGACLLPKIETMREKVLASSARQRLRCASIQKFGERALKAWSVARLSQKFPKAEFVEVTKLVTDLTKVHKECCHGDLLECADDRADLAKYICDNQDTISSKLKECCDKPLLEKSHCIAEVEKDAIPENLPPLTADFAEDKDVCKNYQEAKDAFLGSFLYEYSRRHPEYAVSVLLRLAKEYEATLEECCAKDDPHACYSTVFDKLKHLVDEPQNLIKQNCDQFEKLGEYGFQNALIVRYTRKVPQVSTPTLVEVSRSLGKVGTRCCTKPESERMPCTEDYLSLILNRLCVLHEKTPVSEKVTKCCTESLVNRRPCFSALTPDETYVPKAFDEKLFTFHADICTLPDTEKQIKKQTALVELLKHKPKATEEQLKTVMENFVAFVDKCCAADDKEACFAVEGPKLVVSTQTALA
Protocol: as §15, §16, §17, §18, §19, §20, §7, §8, §9, §10, §11, §12, §13, §14, §21

Chicken serum albumin = molecular target: T1, Chicken serum albumin (Gallus gallus, UniProt P19121); experiment: as above; details: compound immobilised on CM5 chip according to Example 8
T1 sequence (P19121 24-615): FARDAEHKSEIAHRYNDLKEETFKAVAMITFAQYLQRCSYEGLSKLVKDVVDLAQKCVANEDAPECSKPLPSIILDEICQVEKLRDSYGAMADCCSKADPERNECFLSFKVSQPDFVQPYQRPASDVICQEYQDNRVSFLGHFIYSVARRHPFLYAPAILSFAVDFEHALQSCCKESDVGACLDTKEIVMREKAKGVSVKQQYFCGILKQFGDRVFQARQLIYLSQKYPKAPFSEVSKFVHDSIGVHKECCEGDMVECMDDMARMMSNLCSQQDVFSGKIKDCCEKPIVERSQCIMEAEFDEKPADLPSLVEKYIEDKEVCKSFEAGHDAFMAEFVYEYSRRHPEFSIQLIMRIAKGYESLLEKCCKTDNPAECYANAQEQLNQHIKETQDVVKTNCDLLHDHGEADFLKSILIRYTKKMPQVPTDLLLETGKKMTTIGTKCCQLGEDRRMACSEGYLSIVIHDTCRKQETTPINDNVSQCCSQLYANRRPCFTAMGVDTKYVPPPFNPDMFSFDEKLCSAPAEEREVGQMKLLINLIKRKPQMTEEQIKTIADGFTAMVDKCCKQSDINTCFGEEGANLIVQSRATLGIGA
Protocol: as §15, §16, §17, §18, §19, §20, §7, §8, §9, §10, §11, §12, §13, §14, §21

Mouse serum albumin = Mouse serum albumin (Mus musculus, UniProt P07724); experiment: as above; details: compound immobilised on CM5 chip according to Example 8
Mouse serum albumin, sequence (P07724 25-608): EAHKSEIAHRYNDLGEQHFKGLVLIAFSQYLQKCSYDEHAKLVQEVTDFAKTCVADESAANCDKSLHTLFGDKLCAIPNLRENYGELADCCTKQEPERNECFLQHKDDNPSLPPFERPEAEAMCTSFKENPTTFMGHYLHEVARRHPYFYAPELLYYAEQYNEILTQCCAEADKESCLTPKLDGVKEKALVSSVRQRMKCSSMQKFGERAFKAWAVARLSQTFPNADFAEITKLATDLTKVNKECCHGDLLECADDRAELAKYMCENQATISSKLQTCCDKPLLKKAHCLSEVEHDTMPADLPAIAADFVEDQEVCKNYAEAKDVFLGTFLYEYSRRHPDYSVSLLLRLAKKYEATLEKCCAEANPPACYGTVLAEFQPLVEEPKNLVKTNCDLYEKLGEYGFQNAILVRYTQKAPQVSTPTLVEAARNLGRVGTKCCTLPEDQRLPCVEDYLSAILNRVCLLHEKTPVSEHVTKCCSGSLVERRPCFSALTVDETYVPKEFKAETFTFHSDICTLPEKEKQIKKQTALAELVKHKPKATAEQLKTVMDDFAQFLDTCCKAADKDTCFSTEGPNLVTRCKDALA
Protocol: as §15, §16, §17, §18, §19, §20, §7, §8, §9, §10, §11, §12, §13, §14, §21

Rat serum albumin = Rat serum albumin (Rattus norvegicus, UniProt P02770); experiment: as above; details: compound immobilised on CM5 chip according to Example 8
Rat serum albumin, sequence (P02770 25-608): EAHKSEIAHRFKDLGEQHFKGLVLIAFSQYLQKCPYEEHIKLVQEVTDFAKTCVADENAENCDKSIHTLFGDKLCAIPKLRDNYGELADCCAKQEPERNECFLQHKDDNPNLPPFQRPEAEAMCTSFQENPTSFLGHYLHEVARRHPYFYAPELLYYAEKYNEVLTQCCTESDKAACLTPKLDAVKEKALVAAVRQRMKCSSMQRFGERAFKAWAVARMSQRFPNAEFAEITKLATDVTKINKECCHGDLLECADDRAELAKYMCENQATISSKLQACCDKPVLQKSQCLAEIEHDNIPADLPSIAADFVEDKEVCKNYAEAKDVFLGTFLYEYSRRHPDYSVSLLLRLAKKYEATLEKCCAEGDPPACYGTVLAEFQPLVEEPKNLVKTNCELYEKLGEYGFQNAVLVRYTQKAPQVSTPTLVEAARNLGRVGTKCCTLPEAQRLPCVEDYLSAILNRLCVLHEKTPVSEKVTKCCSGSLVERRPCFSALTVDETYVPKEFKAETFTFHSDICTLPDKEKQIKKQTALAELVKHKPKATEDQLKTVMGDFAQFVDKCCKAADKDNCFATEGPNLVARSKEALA
Protocol: as §15, §16, §17, §18, §19, §20, §7, §8, §9, §10, §11, §12, §13, §14, §21

Human serum albumin = Human serum albumin (Homo sapiens, UniProt P02768); experiment: as above; details: compound immobilised on CM5 chip according to Example 8
Human serum albumin, sequence (P02768 25-609): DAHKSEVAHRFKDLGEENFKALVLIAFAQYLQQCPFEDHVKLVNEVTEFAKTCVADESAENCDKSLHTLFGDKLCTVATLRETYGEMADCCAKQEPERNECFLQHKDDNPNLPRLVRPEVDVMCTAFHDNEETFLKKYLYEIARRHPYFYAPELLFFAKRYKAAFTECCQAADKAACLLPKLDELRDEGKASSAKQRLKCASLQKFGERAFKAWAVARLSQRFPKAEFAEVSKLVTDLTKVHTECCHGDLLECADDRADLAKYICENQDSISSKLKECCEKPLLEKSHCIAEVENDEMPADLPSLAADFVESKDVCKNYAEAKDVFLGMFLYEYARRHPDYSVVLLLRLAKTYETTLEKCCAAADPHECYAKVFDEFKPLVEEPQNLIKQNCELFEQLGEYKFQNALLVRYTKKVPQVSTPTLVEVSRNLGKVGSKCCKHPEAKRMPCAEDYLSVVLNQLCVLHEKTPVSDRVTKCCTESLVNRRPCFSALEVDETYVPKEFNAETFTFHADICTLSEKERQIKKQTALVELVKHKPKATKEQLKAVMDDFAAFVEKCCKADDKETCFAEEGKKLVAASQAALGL
Protocol: as §15, §16, §17, §18, §19, §20, §7, §8, §9, §10, §11, §12, §13, §14, §21

SMILES: CC(O)=C(C#N)C(=O)Nc1ccc(C(F)(F)F)cc1 [A 77 1726B, sodium salt of N-(4-trifluoromethylphenyl)-2-cyano-3-hydroxycrotonamide]
- intensity of band around 35 kDa (malate dehydrogenase) in the preparation fraction (RAW 264.7 cells): markedly increased

SMILES: Cc1oncc1C(=O)Nc1ccc(NC(=O)CBr)cc1 [Example 1, 5-Methylisoxazole4-carboxylic acid (4-(2-bromoacetylamino)phenyl)amide]
- IC50 (A20.2.J): 0.8 µM
- IC50 (EL 4): 0.8 µM
- IC50 (K562): 50 µM

SMILES: CC(O)=C(C#N)C(=O)Nc1ccc(OCCCI)cc1 [Example 5, 2-Cyano-3-hydroxybut-2-enecarboxylic acid (4-(3-iodopropoxy)phenyl)amide]
- IC50 (A20.2.J): 50 µM
- IC50 (EL 4): 25 µM

SMILES: CC(O)=C(C#N)C(=O)Nc1ccc(NC(=O)CBr)cc1 [Example 2]
- relative binding strengths of the dehydrogenases (dehydrogenases): the binding of the dihydroorotate DH was the strongest, followed by lactate DH, glyceraldehyde phosphate DH and pyruvate kinase
- Resonance Units, binding of Dihydroorotate DH (Dihydroorotate DH; enzyme 50 nM): 203 Resonance Units
- Resonance Units, binding of Dihydroorotate DH (Dihydroorotate DH; enzyme 100 nM): 425 Resonance Units
- Resonance Units, binding of Dihydroorotate DH (Dihydroorotate DH; enzyme 250 nM): 1064 Resonance Units
- Resonance Units, binding of Pyruvate kinase DH (Pyruvate kinase DH; enzyme 50 nM): 85 Resonance Units
- Resonance Units, binding of Pyruvate kinase DH (Pyruvate kinase DH; enzyme 100 nM): 189 Resonance Units
- Resonance Units, binding of Pyruvate kinase DH (Pyruvate kinase DH; enzyme 250 nM): 505 Resonance Units
- Resonance Units, binding of Glyceraldehyde phosphate DH ([1]; enzyme 25 nM): 69 Resonance Units
- Resonance Units, binding of Glyceraldehyde phosphate DH ([1]; enzyme 50 nM): 148 Resonance Units
- Resonance Units, binding of Glyceraldehyde phosphate DH ([1]; enzyme 100 nM): 297 Resonance Units
- Resonance Units, binding of Glyceraldehyde phosphate DH ([1]; enzyme 250 nM): 603 Resonance Units
- IC50 (A20.2.J): 15 µM
- Resonance Units, binding of serum albumin (Donkey serum albumin): 480 Resonance Units
- Resonance Units, binding of serum albumin (Sheep serum albumin): 331 Resonance Units
- Resonance Units, binding of serum albumin (Bovine serum albumin): 50 Resonance Units
- Resonance Units, binding of serum albumin (Chicken serum albumin): 8 Resonance Units
- Resonance Units, binding of serum albumin (Mouse serum albumin): 151 Resonance Units
- Resonance Units, binding of serum albumin (Rat serum albumin): 1061 Resonance Units
- Resonance Units, binding of serum albumin (Human serum albumin): 294 Resonance Units
- IC50 (EL 4): 6 µM
- IC50 (K562): 20 µM
